Values of other authors as cited in paper PMC10289985, “Brigatinib pharmacokinetics in patients with chronic hepatic impairment” (Investigational New Drugs, 2023).
Where two headings read alike, the source gives them in different places.

Tests used:
[1] = design: method as in PMID 30052269; conditions: cited from earlier work
[2] = design: method as in ref 26 = [26]; 26. Zykadia [package insert] (2021) Novartis Pharmaceuticals Corporation, East Hanover, NJ; conditions: cited from earlier work
[3] = design: method as in PMID 29468455; conditions: patients with moderate or severe hepatic impairment; cited from earlier work

In the case of CCc1cc2c(cc1N1CCC(N3CCOCC3)CC1)C(C)(C)c1[nH]c3cc(C#N)ccc3c1C2=O [alectinib], the “increase of combined systemic exposures (AUC) of alectinib and its M4 metabolite” value ([1]; moderate hepatic impairment vs matched healthy participants) is listed as 36% and the “increase of combined systemic exposures (AUC) of alectinib and its M4 metabolite” value ([1]; severe hepatic impairment vs matched healthy participants) is listed as 76%.
For Cc1cc(Nc2ncc(Cl)c(Nc3ccccc3S(=O)(=O)C(C)C)n2)c(OC(C)C)cc1C1CCNCC1 [ceritinib], the “systemic exposures compared with healthy participants” value ([2]; mild and moderate hepatic impairment) is given as “similar” and the “increase of unbound systemic exposure (AUC)” value ([2]; severe hepatic impairment) is given as 108%.
For C[C@@H](Oc1cc(-c2cnn(C3CCNCC3)c2)cnc1N)c1c(Cl)ccc(F)c1Cl [crizotinib], the “change of concentrations in hepatic impairment” value [3] is given as “increased”.
